Assays:
[1] = system: type I collagen in the ECM; test: Assay of type I collagen directly on the ECM of fibroblast cultures (anticollagen I antibody, europium TRF); format: cell-based, human
Procedure: After 48 hours of culture post-confluency, the culture medium was removed and discarded. A lysis step was carried out: 110 μl of an ammonium hydroxide solution at 20 mM for 10 minutes at room temperature and with stirring. The lysate was collected and analysed. The double-stranded DNA contained in the lysate was assayed by using the bisbenzimide method (Picogreen Kit, Invitrogen). The collagen in the ECM was assayed directly on the ECM by using an anticollagen I antibody. A secondary antibody conjugated to europium was used with a detection solution and the fluorescence was measured. (Delfia® kit—Perkin Elmer). The fluorescence results were rationalized relative to the amount of dsDNA measured. The experiment was carried out without active ingredient on the one hand and with ascorbic acid solubilized in PBS at different concentrations from 0.1 to 100 μM. The experiment was carried out according to the protocol described in example 1 with fibroblasts extracted from a biopsy from a donor. The cells at confluency were incubated in the presence of the active ingredients for 48 hours at 37° C. under 0.5% CO2 or without active ingredient (control) for 48 hours at 37° C. under 0.5% CO2. […]

[2] = system: intracellular procollagen; test: Procollagen assay by ELISA (PIPc kit) on collected lysis medium; format: cell-based, human; settings: Example 4
Procedure: A lysis step was carried out: 110 μl of an ammonium hydroxide solution at 20 mM for 10 minutes at room temperature and with stirring. The experiment was carried out without active ingredient on the one hand and with ascorbic acid solubilized in PBS at different concentrations from 0.1 to 100 μM. On the collected lysis medium, a procollagen assay (PIPc kit, TAKARA) by ELISA was carried out for determining the amount of intracellular procollagen (Table 4.2). A DNA assay (Picogreen kit, Invitrogen) was also carried out for rationalizing all of the measurements in each well to the quantity of viable cells. The amounts of collagen and procollagen measured were rationalized to the amount of DNA present in each well.

How did the “Effect on amount of collagen I in the ECM” value ([1]; 50 μM, Example 6) turn out when O=C1O[C@H]([C@@H](O)CO)C(O)=C1O [Ascorbic acid] was run?
The value was “significant increase in the amount of collagen I in the ECM”.

And the “Concentration up to which the effect on content of collagen I in the ECM is dose-dependent (threshold effect)” value ([1]; Example 4, 0.1 to 100 μM)?
Its value is “up to 50 μM”.

What about the “Procollagen concentration in the intracellular compartment versus untreated control” value [2] of the same compound?
Its value is “less than that observed with the untreated control”.

— patent US9146237B2, “In vitro assay method using immunological technique” (BASF Beauty Care Solutions France S.A.S., priority 2011, dated 2015)
